We go through six compounds from patent publication US20220242846A1, “ISOINDOLINONE COMPOUNDS” (Monte Rosa Therapeutics AG, priority 2019, published 2022).

GSPT1, sequence (P15170 whole entry): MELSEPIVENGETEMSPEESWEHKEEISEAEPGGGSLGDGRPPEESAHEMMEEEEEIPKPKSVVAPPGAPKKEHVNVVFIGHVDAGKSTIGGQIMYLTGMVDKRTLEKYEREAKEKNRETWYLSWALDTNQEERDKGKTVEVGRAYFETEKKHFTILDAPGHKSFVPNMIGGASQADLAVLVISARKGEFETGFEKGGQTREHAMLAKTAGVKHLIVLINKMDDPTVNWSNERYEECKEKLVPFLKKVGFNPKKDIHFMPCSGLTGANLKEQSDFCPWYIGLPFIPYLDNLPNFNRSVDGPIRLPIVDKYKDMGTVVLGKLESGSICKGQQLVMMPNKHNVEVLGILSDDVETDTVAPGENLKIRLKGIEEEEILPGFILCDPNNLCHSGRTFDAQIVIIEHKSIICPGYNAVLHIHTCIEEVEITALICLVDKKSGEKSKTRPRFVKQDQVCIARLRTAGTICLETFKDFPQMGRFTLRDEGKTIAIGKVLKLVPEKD
GSPT1, sequence (Q96SW2 whole entry): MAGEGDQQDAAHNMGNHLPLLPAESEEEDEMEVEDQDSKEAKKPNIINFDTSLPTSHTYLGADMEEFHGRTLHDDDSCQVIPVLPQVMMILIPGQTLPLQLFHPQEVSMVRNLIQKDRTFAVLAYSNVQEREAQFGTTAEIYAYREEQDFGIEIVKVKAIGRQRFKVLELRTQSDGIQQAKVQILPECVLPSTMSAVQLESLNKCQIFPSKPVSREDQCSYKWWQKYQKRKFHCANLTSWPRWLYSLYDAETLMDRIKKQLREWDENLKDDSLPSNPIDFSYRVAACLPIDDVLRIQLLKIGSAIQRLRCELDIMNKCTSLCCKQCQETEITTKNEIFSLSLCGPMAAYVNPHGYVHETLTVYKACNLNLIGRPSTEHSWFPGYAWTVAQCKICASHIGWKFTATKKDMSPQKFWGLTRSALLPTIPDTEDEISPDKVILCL
GSPT1, sequence (Q16531 2-1140 partner limits assumed): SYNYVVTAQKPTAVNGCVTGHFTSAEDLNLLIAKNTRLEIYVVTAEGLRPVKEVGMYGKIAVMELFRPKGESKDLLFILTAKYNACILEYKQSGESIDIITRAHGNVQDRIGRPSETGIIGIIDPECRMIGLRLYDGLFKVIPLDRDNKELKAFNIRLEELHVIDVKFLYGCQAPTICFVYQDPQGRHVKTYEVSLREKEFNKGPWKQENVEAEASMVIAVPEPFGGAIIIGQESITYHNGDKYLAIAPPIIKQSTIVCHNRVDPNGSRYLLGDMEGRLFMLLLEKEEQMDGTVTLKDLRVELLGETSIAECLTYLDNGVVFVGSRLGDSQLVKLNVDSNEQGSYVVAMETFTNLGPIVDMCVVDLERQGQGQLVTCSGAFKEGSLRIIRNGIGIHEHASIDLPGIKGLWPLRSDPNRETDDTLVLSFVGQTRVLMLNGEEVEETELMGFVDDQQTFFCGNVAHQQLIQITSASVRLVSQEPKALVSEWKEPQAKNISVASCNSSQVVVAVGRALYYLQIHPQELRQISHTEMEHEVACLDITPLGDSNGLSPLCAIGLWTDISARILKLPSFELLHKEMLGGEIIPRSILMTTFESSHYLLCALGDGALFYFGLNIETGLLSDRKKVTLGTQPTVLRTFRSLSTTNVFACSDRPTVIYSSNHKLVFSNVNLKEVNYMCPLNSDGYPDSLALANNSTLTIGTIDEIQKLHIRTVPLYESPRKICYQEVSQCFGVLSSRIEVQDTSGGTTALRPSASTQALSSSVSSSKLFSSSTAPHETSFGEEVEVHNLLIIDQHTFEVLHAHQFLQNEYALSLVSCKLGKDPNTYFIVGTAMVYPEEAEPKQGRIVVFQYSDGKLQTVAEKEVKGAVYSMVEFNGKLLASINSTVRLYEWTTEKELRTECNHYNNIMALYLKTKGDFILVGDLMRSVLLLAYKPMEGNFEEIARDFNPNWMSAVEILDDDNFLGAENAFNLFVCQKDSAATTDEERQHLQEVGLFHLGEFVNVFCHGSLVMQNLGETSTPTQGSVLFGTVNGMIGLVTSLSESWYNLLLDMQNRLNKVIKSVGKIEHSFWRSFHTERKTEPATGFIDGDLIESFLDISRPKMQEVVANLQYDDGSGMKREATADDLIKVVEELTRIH

In the first assay the target is GSPT1 (Homo sapiens, UniProt P15170+Q96SW2). Put plainly: Immunofluorescence assay for GSPT1 degradation in CAL-51 cells. It is filed as cell-based. Particulars: GSPT1 degradation, compound treatment 6 hours, read-out: DC50. On the set-up: CAL-51 cells were purchased from DSMZ (cat. Number ACC302); endogenous in cells; host or cells: CAL-51 (DSMZ ACC302). The essentials:
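CAL-51 cells on fibronectin-coated plates treated 6 h with compound (30 μM to 0.1 nM); fixed, stained with anti-GSPT1/Alexa-488, phalloidin and DAPI, imaged by high-content microscopy. Mean GSPT1 intensity per cell normalized to controls; DC50 by non-linear regression.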
Consider `Cc1cc(C)c(NC(=O)NCc2ccc3c(c2)C(=O)N(C2CCC(=O)NC2=O)C3)cc1Cl` (stereo not shown) [Compound 85], for which the DC50 is 274 nM.

Still in this assay, the particulars now being: compound treatment 6 hours, read-out: Code: activity for GSPT1 degradation (DC50).
`Cc1c(Cl)cc(NC(=O)NCc2ccc3c(c2)C(=O)N(C2CCC(=O)NC2=O)C3)cc1CC1COCOC1` (stereo not shown) [Compound 132]: the DC50 is at most 100 nM.

`O=C1CCC(N2Cc3ccc(CNC(=O)Nc4cccc(CN5CCOCC5)c4)cc3C2=O)C(=O)N1` (stereo not shown) [Compound 105]: the DC50 was over 300 nM.

Consider `Cc1c(Cl)cc(NC(=O)NCc2ccc3c(c2)C(=O)N(C2CCC(=O)NC2=O)C3)cc1CN1CCOCC1` (stereo not shown) [Compound 82], for which the DC50 was at most 100 nM.

Take `Cc1cc(C)c(NC(=O)NCc2ccc3c(c2)C(=O)N(C2CCC(=O)NC2=O)C3)cc1Cl` (stereo not shown) [Compound 85]: the DC50 was in the range of 100 to 300 nM.

On to `Cc1c(Cl)cc(NC(=O)NCc2ccc3c(c2)C(=O)N(C2CCC(=O)NC2=O)C3)cc1CN(C)C` (stereo not shown) [Compound 75], for which the DC50 was in the range of 100 to 300 nM.

For `Cc1ccc(NC(=O)NCc2ccc3c(c2)C(=O)N(C2CCC(=O)NC2=O)C3)c(Cl)c1Cl` (stereo not shown) [Compound 87], the DC50 is over 300 nM.

One may read the DC50 as the concentration at which degradation of the target reaches its halfway point.
